Values of other authors as cited in US20090018020A1, “USE OF COMPOUNDS COMPRISING A POLYSACCHARIDE STRUCTURE AS BIOFERTILISER AND PHYTOSANITARY PRODUCTS” (CENTRE NATIONAL DE LA RECHERCHE SCIENTIFIQUE, priority 2002, published 2009).

Conditions: literature (Mc Dougall and Fry 1989, 1990)

## XLLG
  auxinic or antiauxinic effect: auxinic effect

## XXLG
  auxinic or antiauxinic effect: auxinic effect
